Tests used:
[1] = system: human prostate cancer cells in culture; conditions: cited from earlier work
[2] = system: human prostate cancer cells in mouse xenografts; conditions: cited from earlier work
PSA = conditions: cited from earlier work
[3] = system: androgen-independent metastatic prostate cancer; conditions: TAX 327 phase III study, patients; cited from earlier work
[4] = system: LNCaP (androgen-sensitive) human prostate cancer tumors SRCX; assay: Growth of LNCaP prostate cancer tumors SRCX in mice; assay type: in vivo; conditions: 3 weeks
Protocol: LNCaP prostate cancer was treated for 3 weeks according to the following regimen.

[5] = cited from earlier work

| Structure (SMILES) | anti-proliferative effect [1] | anti-proliferative effect [2] | PSA expression (PSA) | overall response rate [3] [%] | inhibition of growth of LNCaP tumors ([4]; Aneustat 1652 mg/kg oral gavage QD x 21, Taxotere 10 mg/kg IP d=1, 8, 15, P<0.01) | efficacy in tumor size reduction (FIG. 1) ([4]; Aneustat 1652 mg/kg oral, Taxotere 10 mg/kg IP) | water solubility compared with paclitaxel [5] |
| --- | --- | --- | --- | --- | --- | --- | --- |
| COc1cc(CNC(=O)CCCC/C=C/C(C)C)ccc1O [capsaicin] | profound anti-proliferative effect | profound anti-proliferative effect | down-regulates PSA expression |  |  |  |  |
| O=C1c2c(O)ccc(O)c2C(=O)c2c(NCCNCCO)ccc(NCCNCCO)c21 [mitoxantrone] |  |  |  | 7 |  |  |  |
| CC(=O)O[C@@]12CO[C@@H]1C[C@H](O)[C@@]1(C)C(=O)[C@H](O)C3=C(C)[C@@H](OC(=O)[C@H](O)[C@@H](NC(=O)OC(C)(C)C)c4ccccc4)C[C@@](O)([C@@H](OC(=O)c4ccccc4)[C@H]21)C3(C)C [Taxotere®, docetaxel] |  |  |  | 12 | significantly inhibited growth | somewhat more effective | more water soluble than paclitaxel |
